# Article PMC9283466, “In silico identification of two peptides with antibacterial activity against multidrug-resistant Staphylococcus aureus” (NPJ Biofilms and Microbiomes, 2022)
# Peptide text beside a SMILES is read from it.
# Columns and labels:
# [1] = system: S. aureus USA300 BAA-1717; test: microbe, parasite or virus in culture; format: cell-based, Staphylococcus aureus; conditions: Staphylococcus aureus, BAA-1717 / MRSA / USA300; S. aureus USA300 BAA-1717; MRSA; read-out: MIC
# Protocol: (§1) To determine the antimicrobial activity of the new antimicrobial peptides, HG2 and HG4, their minimum inhibitory concentrations (MICs) were determined by broth microdilution method[51] in cation adjusted Mueller Hinton broth (MHB) following the International Organisation for Standardisation (ISO) 20776-1 standard for MIC testing using a final bacterial inoculum of 5 × 10^5 CFU/ml[52]. […] The peptides dissolved in sterile distilled water were added to bacteria culture and incubated overnight at appropriate conditions. The MICs of the peptides and comparator antibiotics were recorded after 18–24 h. The minimum bactericidal concentrations (MBCs) were also determined and were taken as the lowest concentration of the antimicrobial that prevented the growth of bacterial cells after the subculture of cells (from MIC treatment) onto antibiotic-free media.
# S. aureus ATCC 33591 = test: microbe, parasite or virus in culture; format: cell-based, Staphylococcus aureus; conditions: Staphylococcus aureus; S. aureus ATCC 33591; MRSA; read-out: MIC
# Protocol: as §1
# S. aureus EMRSA-15 = test: microbe, parasite or virus in culture; format: cell-based, Staphylococcus aureus; conditions: Staphylococcus aureus; S. aureus EMRSA-15; resistances MRSA, Cip; read-out: MIC
# Protocol: as §1
# P. aeruginosa = test: microbe, parasite or virus in culture; format: cell-based, Pseudomonas aeruginosa
# Protocol: as §1
# EMRA-15 = test: microbe, parasite or virus in culture; format: cell-based, Staphylococcus aureus
# Protocol: as §1
# S. aureus = test: microbe, parasite or virus in culture; format: cell-based, Staphylococcus aureus
# Protocol: as §1
# List. monocytogenes = test: microbe, parasite or virus in culture; format: cell-based, Listeria monocytogenes
# Protocol: as §1
# Ent. faecalis = test: microbe, parasite or virus in culture; format: cell-based, Enterococcus faecalis
# Protocol: as §1
# Sal. typhimurium = test: microbe, parasite or virus in culture; format: cell-based, Salmonella enterica serovar Typhimurium
# Protocol: as §1
# E. coli = test: microbe, parasite or virus in culture; format: cell-based, Escherichia coli
# Protocol: as §1
# MRSA USA300 cells [2] = test: Time-kill kinetics; format: cell-based, Staphylococcus aureus; conditions: 3x MIC, comparator antibiotics, time not stated
# Protocol: The bactericidal activity of HG2, HG4 and comparator antimicrobial compounds was assessed using exponential-phase cultures[14] of MRSA USA300 grown in MHB (1 × 10^6-8 CFU/ml). […] Samples were taken at different time points, serially diluted and inoculated onto MH agar plates using the spread plate technique. After overnight incubation, the colony-forming units per millilitre of cell culture (CFU/ml) was calculated. Experiments were performed in quadruplicates.
# MRSA USA300 cells [3] = test: Serial passage / resistance assay; format: cell-based, Staphylococcus aureus; conditions: sub-MIC exposure over 20 days, MRSA USA300
# Protocol: In vitro evaluation of the potential for MRSA USA3000 cells to develop resistance to HG2 and HG4 was performed as follows. […] Cultures from the highest concentration that supported growth were diluted 1: 1000 in MHB and used to provide the inoculum for the next passage day. This process was performed for a total duration of 20 days. Any putative mutants recovered were isolated via streak dilution for three generations on MHA, prior to further characterisation.
Structure (SMILES),MIC [1],MIC (S. aureus ATCC 33591),MIC (S. aureus EMRSA-15),Minimum inhibitory Concentrations MICs (P. aeruginosa),Minimum inhibitory Concentrations MICs (EMRA-15),Minimum inhibitory Concentrations MICs (S. aureus),Minimum inhibitory Concentrations MICs (List. monocytogenes),Minimum inhibitory Concentrations MICs (Ent. faecalis),Minimum inhibitory Concentrations MICs (Sal. typhimurium),Minimum inhibitory Concentrations MICs (E. coli),reduction in viable cells (time-kill) (MRSA USA300 cells [2]),fold increase in MIC during serial passage (MRSA USA300 cells [3])
"C[C@H]1COc2c(N3CCN(C)CC3)c(F)cc3c(=O)c(C(=O)O)cn1c23 [Levof, levofloxacin]",0.0075 µg/mL,0.015 µg/mL,1 µg/mL,,,,,,,,,
CC[C@H](C)[C@H](NC(=O)[C@H](CC(C)C)NC(=O)[C@H](CC(C)C)NC(=O)[C@H](CC(C)C)NC(=O)[C@H](CCCCN)NC(=O)[C@H](CCCCN)NC(=O)[C@@H](N)CCSC)C(=O)N[C@@H](CC(C)C)C(=O)N[C@@H](Cc1ccccc1)C(=O)N[C@@H](CS)C(=O)N[C@@H](CC(C)C)C(=O)N[C@@H](C)C(=O)N[C@@H](CC(C)C)C(=O)N[C@@H](C)C(=O)N[C@@H](CC(C)C)C(=O)N[C@@H](C)C(=O)NCC(=O)N[C@@H](CS)C(=O)N[C@@H](CCCCN)C(=O)N[C@@H](CCCCN)C(=O)N[C@@H](C)C(=O)N1CCC[C@H]1C(N)=O [Linear HG2] (H-MKKLLLILFCLALALAGCKKAP-NH2; N-terminus and C-terminus assumed),,,,> 1024 µg/mL,> 1024 µg/mL,> 1024 µg/mL,> 1024 µg/mL,> 1024 µg/mL,> 1024 µg/mL,> 1024 µg/mL,,
"C/C(=C\C(=O)OCCCCCCCCC(=O)O)C[C@@H]1OC[C@H](C[C@@H]2O[C@H]2[C@@H](C)[C@H](C)O)[C@@H](O)[C@H]1O [Mupirocin, reference compound]",0.12 µg/mL,,,,,,,,,,≥ 2 log10 CFU/ml,32 fold
